System: blood platelet-rich plasma
Experiment: Evaluation of LDH activity of blood platelet-rich plasma samples with surfactant (JSCC transferable method)
Format: cell-based, human
Conditions: sample with 0.6% of surfactant, sample without surfactant taken as 100; 37° C.
From the text: (2) Evaluation of LDH Activity
In Table 2, “LDH activity” means the activity of the test sample with 0.6% of surfactant, assuming that that of the test sample without surfactant to be 100.

Compound	LDH Activity
C[C@H](CCC(=O)O)[C@H]1CC[C@H]2[C@@H]3CC[C@@H]4C[C@H](O)CC[C@]4(C)[C@H]3C[C@H](O)[C@]12C [deoxycholic acid, reference compound]	199
POE (5) oleylether [EMALEX 505]	295
POE (6) perfluoroalkyl ethoxylate [Example F-1405]	102
POE (10) octylether [Nissan Nonion]	694
POE (10) perfluoroalkyl [Example F-142D]	104
POE (12) oleylether [EMALEX 512]	307
POE (20) oleylether [EMALEX 520]	297
sodium α-olefin sufonate [NIKKOL OS-14]	212

Reference: patent publication US7452505B2, “Method for analyzing blood test sample and dry analytical element and analytical kit utilizing the method” (Fujifilm Corporation, priority 2002, dated 2008)
